According to US7468178B2, “Methods for identifying compounds that modulate vigilance states” (Neurosciences Research Foundation, Inc., priority 1999, dated 2008):

Tests used:
Drosophila [1] = test system: Drosophila
Procedure: In order to monitor fly behavior, five-day old virgin female Canton-S Drosophila melanogaster were cultured at 25° C., 50-60% humidity, 12 hr:12 hr light:dark cycle, on brewer's yeast, dark corn syrup and agar food, following procedures modified from J. Bennett and D. L. van Dyke, Dros. […] Continuous, high-resolution measurement of fly behavior was achieved using an ultrasound activity monitoring system shown in FIG. 1A. Briefly, a 44 kHz standing wave was passed across an independent enclosure containing a single fly. An integrated circuit sampled a portion of each wave as a function of the transmit signal and compared it to the output from the receive signal for the same time-window. When the fly moved its mass within the field, it perturbed the standing wave and the resulting difference was counted as a movement. The output was sampled by a PC at 200 Hz, the data were summed in 2-sec bins and stored for later processing. This system detects very small movements in Drosophila's behavioral repertoire, including fine movements of the head, wings, and limbs. To monitor rest-activity patterns in large numbers of flies, an infrared Drosophila Activity Monitoring System was used (Trikinetics; described in M. Hamblen et al., J. Neurogen. 3:249 (1986)). To validate the system, flies were visually monitored for a total of 17.75 h (n=7). The number of times the fly crossed the infrared beam was counted in 5-minute bins. […] Drugs (caffeine or hydroxyzine) dissolved in food were continuously available to flies beginning in the final hour of the light period.

Drosophila [2] = test: Responsiveness to arousing stimuli (arousal threshold) in flies; format: in vivo, Drosophila melanogaster; conditions: flies given drug in food
Procedure: In order to determine whether periods of rest are associated with increased arousal thresholds, flies were subjected to vibratory stimuli of increasing intensity (0.05 g, 0.1 g, and 6 g). In these experiments, flies were placed in glass tubes (65 mm in length, 5 mm I.D.) maintained on a hard plastic platform above a Grass speaker. The output of the speaker was controlled via a Beckman signal generator and the resulting vibration of the platform was measured with an accelerometer. Each fly received a stimulus each hour (total of 8 stimuli) of constant intensity. The behavioral state at the time of stimulus delivery and the ensuing response were videotaped and scored off-line.

SMILES	motor activity (Drosophila [1]; flies given drug in food from final hour of light period)	amount of rest during the dark period (Drosophila [1]; flies given drug in food from final hour of light period, FIG. 3C, n=36/dose, p<0.0001)	rest during the first hour of the dark period (Drosophila [1]; flies given drug in food from final hour of light period, FIG. 3D, n=40/dose)	latency to first dark period rest (Drosophila [1]; flies given drug in food from final hour of light period, FIG. 3E, n=40/dose)	total amount of activity during the light period (Drosophila [1]; in vivo)	responsiveness to arousing stimuli (Drosophila [2])
Cn1c(=O)c2c(ncn2C)n(C)c1=O [caffeine]	increased	decreased in a dose-dependent fashion				
OCCOCCN1CCN(C(c2ccccc2)c2ccc(Cl)cc2)CC1 (stereo not drawn) [hydroxyzine]			increased in a dose-dependent manner	decreased	unchanged	preserved
